Assay results as given in PubChem BioAssay (NCI).
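A five-concentration, 48-hour dose response in 96-well plates underlies each endpoint, interpolated linearly between surrounding concentrations. TGI marks complete inhibition of growth.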

Key:
Assay in all cases: NCI-60 cell line screen, 48 h
NCI-H226 lung = test system: NCI-H226 lung
DU-145 prostate = test system: DU-145 prostate
SF-268 CNS = test system: SF-268 CNS
ACHN renal = test system: ACHN renal
SK-MEL-5 melanoma = test system: SK-MEL-5 melanoma
HS 578T breast = test system: HS 578T breast
KM12 colon = test system: KM12 colon
U251 CNS = test system: U251 CNS
SF-295 CNS = test system: SF-295 CNS
UO-31 renal = test system: UO-31 renal

Compound	TGI (NCI-H226 lung) [µM]	TGI (DU-145 prostate) [µM]	TGI (SF-268 CNS) [µM]	TGI (ACHN renal) [µM]	TGI (SK-MEL-5 melanoma) [µM]	TGI (HS 578T breast) [µM]	TGI (KM12 colon) [µM]	TGI (U251 CNS) [µM]	TGI (SF-295 CNS) [µM]	TGI (UO-31 renal) [µM]
CC(=O)Oc1ccn2nc(C)c(Br)c2c1	> 100	> 100	> 100	> 100	> 100	> 100	> 100	> 100	> 100	
COc1ccc([C@]23CCC4(OCC(C)(C)CO4)[C@H]4CON(O[C@H](O[C@@H]5CCCCC5C(C)(C)c5ccccc5)C2)[C@@H]43)cc1OC (stereo partly specified)	> 100	> 100			45.4		> 100	> 100	> 100	> 100
O=C(c1ccc([N+](=O)[O-])cc1)N1CCCC1	> 100	> 100	> 100	> 100	> 100	> 100	> 100	> 100	> 100	> 100
CCn1ncc2c(=O)n3ncn(-c4ccc(Br)cc4)c3nc21	> 100	> 100	> 100	> 100	> 100	> 100	> 100	> 100	> 100	> 100
CS(=O)(=O)Nc1ccc2ccccc2c1	> 100	> 100	> 100	> 100	> 100	> 100	> 100	> 100	> 100	> 100
CCOC(=O)C(NC(=O)c1cccc(Cl)c1)(Nc1cccc(C)c1)C(F)(F)F (stereo unspecified)	30.7	99.6	58.9	29.8	30.9	49.4	30.1	79.3		32.7
N#CCCN(CCC#N)c1ccc(C(N=Nc2ccccc2)=Nc2ccc(F)cc2)cc1	> 100	> 100	> 100	> 100	> 100	> 100	> 100	> 100	> 100	> 100
CNC(=S)N1CCN(C(C)=O)C1=S	62	> 100	> 100	> 100	> 100	87.5	> 100	17.2	> 100	> 100
O=C(c1ccco1)N(C(=O)N1CCC(c2ccccc2)CC1)c1ccccc1	> 100	> 100	> 100	> 100	51.5	> 100	85	> 100		83.8
c1ccc2c(c1)cc1ccc3cccc4ccc2c1c34	> 100	> 100	> 100	> 100	> 100	> 100	> 100	> 100	> 100	> 100
O=C(C(=C(I)I)c1ccccc1)c1ccccc1			> 100	> 100	30.9	43.2			65.5	58.8
C=C1[C@@H]2CCC3[C@]4(C)C(CC[C@@]5(C)C(=O)O[C@H](O)[C@@H]45)[C@H](O)[C@]3(C2)[C@H]1OC1OC(CO)C(O)C(O)C1O (stereo partly specified)	> 50	> 50	> 50	> 50	> 50	> 50	> 50	> 50	> 50	> 50
CC1=C(C(=O)OCCO[N+](=O)[O-])C(c2ccccc2[N+](=O)[O-])C(C(=O)OC(C)C)=C(C)N1 (stereo unspecified)	35	50.4	47.1	87.6	26.8	41.2	28.1	30	34.1	26.2
COc1cc2c(c(OC)c1)[C@H](C)N(Cc1ccccc1)C(C)C2 (stereo partly specified)	84.6	> 100	> 100	> 100	90.3	> 100	> 100		> 100	> 100
COc1cc(/C=N/N=C(\N)NO)c([N+](=O)[O-])cc1OC	54.4		99.2	86.5	50.9		> 100	> 100	> 100	> 100
Cc1nc2c(=O)n(-c3ccccc3)c(=O)n(-c3ccccc3)c2o1	> 100		> 100	> 100	> 100	> 100	> 100	> 100	> 100	> 100
CC[C@H](NC(=O)OC(C)(C)C)C(=O)NCP(=O)(OCc1ccc([N+](=O)[O-])cc1)OCc1ccc([N+](=O)[O-])cc1	> 100	> 100	> 100	69.7	26.4	> 100	> 100	97.1	55.7	80.2
CC/C=N\N1C(N)=C(C#N)C(C#N)(C#N)C1CC (stereo unspecified)	> 100	> 100	> 100	> 100	> 100	> 100	> 100	> 100	> 100	> 100
CC1=NN2C(=N)/C(=C/c3ccc(F)cc3)C(=O)N=C2S1	> 100	> 100	> 100	> 100	> 100	> 100	> 100	> 100	> 100	> 100
N#C/C(C(=O)NCc1ccccc1)=C(/N)N1CCCC1	> 100	> 100	> 100	> 100	> 100	> 100	> 100	> 100	> 100	> 100
CC[C@]12C=CCN3CCC4(c5cc([C@@]6(C(=O)OC)CC7CN(CCc8c6[nH]c6ccccc86)CC6CCCCC67)c(OC)cc5N(C)C4[C@](O)(C(=O)OC)C1OC(C)=O)[C@@H]32 (stereo partly specified)	2.42	14.2	1.47	11.6	1.53	< 0.01	15.7	< 0.01	15.1	7.31
C=C1C[C@@H]2O[C@H]3[C@H]4[C@@H](C[C@@H](C)[C@@H](OC(C)=O)[C@H]42)[C@@H](C)CO[C@@]3(C)[C@H](OC(=O)CCCCCCC)CC1=O	42.9	31.4	36.9	29.5	28.4	39.7	26.2	32.5	33.6	29.5
CSc1nc(Cl)c2c(n1)Sc1nc3ccccc3n1C2O (stereo unspecified)	95	41.9	55	> 100	> 100	> 68.8	> 21.2	15.2	> 100	24.3

Compound	TGI (NCI-H226 lung) [µM]	TGI (DU-145 prostate) [µM]	TGI (SF-268 CNS) [µM]	TGI (ACHN renal) [µM]	TGI (SK-MEL-5 melanoma) [µM]	TGI (HS 578T breast) [µM]	TGI (KM12 colon) [µM]	TGI (U251 CNS) [µM]	TGI (SF-295 CNS) [µM]	TGI (UO-31 renal) [µM]
CC(C)=CCc1c(O)cc2oc(-c3ccc(O)cc3O)cc(=O)c2c1O	> 100	> 84.8	> 100	77	38.7	> 94	50.8	> 100	> 100	93.9
CSc1ncc2c(n1)-c1ccccc1OC2NC1CC1 (stereo unspecified)	> 100	> 100	> 100	> 100	> 100	> 100	> 100	> 100	> 100	> 100
CCc1nc2c(c(N(C)C)c1C(=O)OC)CCc1ccccc1-2	79	40.9	> 100	> 100	32.9	> 100	> 100	> 100	50.9	> 100
CC(C)(C)N=NC(C)(C)N=C=O	> 100		> 100	> 100	> 100		> 100	> 100	> 100	> 100
CSc1ccc(/C=C2\N=C(c3ccccc3)N(c3nc4cc(Cl)c(F)cc4s3)C2=O)cc1		> 100	> 100	> 100	> 100	97.3	> 100	41.7	> 100	> 100
c1cncc(CSc2nc3ccccc3nc2-c2cccs2)c1	> 100		> 100	> 100	> 100		> 100		> 100	> 100
OC(CC(O)(C(F)(F)Cl)C(F)(F)Cl)c1ccccc1 (stereo unspecified)	> 10	> 10	> 10	> 10	0.0502	> 10	> 10	> 10	> 10	
O=c1c2c3c(sc2nc2n1N=C(c1ccc(Br)cc1)CS2)CCCC3	> 100	> 100	> 100	> 100			> 100	> 100	> 100	> 100
CC1(C)N=C(N)N=C(N)N1c1cccc(Cl)c1		> 100	> 100	> 100	> 100	> 100	> 100	> 100	> 100	> 100
COc1ccc(C2C=C(c3ccc(C)cc3)N(c3ccc(OC)cc3[N+](=O)[O-])C3C(=O)OC(=O)C23)c(OC)c1 (stereo unspecified)	> 100		> 100	37.3	> 100	57.6	22.7	> 100	> 100	
CN(C)CCCNC(=O)N/N=C/c1ccccc1	> 100		> 100	> 100	> 100		> 100	> 100	> 100	> 100
O=c1c2ccc(Cl)cc2oc2c(CNc3ccc(S(=O)(=O)Nc4ncccn4)cc3)cccc12	> 100			> 100	> 100		> 100	> 100	> 100	> 100
CCOC(=O)c1c(SCc2cc(=O)[nH]c(=O)[nH]2)n(-c2ccccc2)c(=S)n(-c2ccccc2)c1=O		> 100	> 100	> 100	> 100		> 100	> 100		> 100
CCOC(=O)N1CCN(c2c(N)nc(C)[nH]c2=O)CC1	> 100	> 100	> 100	> 100		> 100	> 100	> 100	> 100	> 100
O=C1c2cc3c(cc2CC12Cc1ccc4c(c1C2=O)CCC4)CCC3 (stereo unspecified)		> 100	> 100	> 100	> 100	> 100		> 100	> 100	> 100
O=[N+]([O-])c1ccc(-c2csc(=[N+]3CCCCC3)s2)cc1			> 100	> 100	17.8		> 100	> 20.8	> 62.5	> 100
CCN(CC)C(=S)N/N=C(/c1ccccc1)c1ccccn1	7.65	> 65.9		5.39	4.83	> 100	19.6	18.8	25.4	9.52
CNC(=O)CN(CC(=O)O)C(=O)NC			> 100	> 100	> 100		> 100	> 100	> 100	> 100
CN1C2=Nc3n(c4ccccc4[n+]3C)CN2c2ccccc21		> 100	44.1	> 100	27.8	90.8	46.8	> 100	> 100	> 100
O=C(NC(C(F)(F)F)(C(F)(F)F)P(=O)(Cc1ccccc1)Cc1ccccc1)C(C(F)(F)F)C(F)(F)F	32.4	> 100	59.4	42.7	29.1	> 100	37.7	41.5	44.6	
O=C1Nc2cc(F)ccc2C1=O	> 100		> 100	> 100	> 100		> 100	> 100	> 100	> 100
O=C1CSC(c2c[nH]c3ccccc23)N1c1ccc(Cl)cc1Cl (stereo unspecified)		> 100	> 100		> 100		> 100	> 100	> 100	> 100
C=CN(C=C)C(=O)Cn1cc(-c2ccccc2)nn1		> 100	> 100	> 100	> 100		> 100	> 100	> 100	
